In patent US7091033B2, “Array of toxicologically relevant canine genes and uses thereof” (Phase-1 Molecular Toxicology, Inc., priority 2000, dated 2006):

Assays:
[1] = test system: canine genes in a canine array (Canine kidney); assay: Canine array fold induction of canine genes in kidney of dogs dosed with an agent (Table 11); type: in vivo; details: Canine kidney, 0.8 mg/kg, 2 days
Text: (§1) Table 11 depicts the fold induction for canine genes in a canine array.

[2] = test system: canine genes of the array; assay: Canine array fold induction of canine genes in kidney of canines dosed with test agents (Table 11); type: in vivo; details: dog, 2 mg/kg, 10189, Canine kidney, 2 mg/kg, 2 days, gene = c0 of the row
Text: as §1

[3] = test system: canine genes of the array; assay: Canine array fold induction of canine genes in liver of canines dosed with test agents (Table 11); type: in vivo; details: dog, 2 mg/kg, 10319, Canine liver, 2 mg/kg, 3 day, gene = c0 of the row
Text: as §1

[4] = test system: canine genes differentially expressed in organs (liver, spleen, kidney, testes, heart, thymus); assay: Transcriptome profiling / differential display of tissues from canines exposed to an agent versus vehicle (reverse transcription, PCR, reamplification of bands, sequencing); type: in vivo
[5] = test system: IL-8 gene expression; assay: Measurement of IL-8 dose response: IL-8 gene expression (fold induction) in MDCK cells dosed with cadmium chloride, cDNA probes on canine array; type: cell-based; details: MDCK cells dosed for 24 hrs at 0.1 μM, 1 μM, and 10 μM; FIG. 3
Text: Dosage response is an important concept in toxicology. Depending on the dosage of a toxin or agent which may be toxic, the gene expression profile of a particular gene may vary. One way that this can be envisioned is by observing the changes in fold induction of a particular gene when analyzed using the arrays of this invention. The dosages determined in dose response curves may be useful in determining “threshold” levels of toxicity, for example for FDA approval. Example 15 and FIG. 3 illustrate this embodiment. Methods of analyzing gene expression and how to correlate gene expression data are provided herein.
Fluorescence-labeled first strand cDNA probe was made from total or mRNA by first isolating RNA from control and treated cells, disclosed supra. […]
The volume of each sample that would contain 20 μg of total RNA (or 2 μg of mRNA) was calculated. The amount of DEPC water needed to bring the total volume of each RNA sample to 14 μl was also calculated. […]
Then the appropriate volume of each RNA sample was added to the labeled PCR tube. […] The tubes were kept on ice until all samples are ready for the next step. It is preferable for the tubes to kept on ice until the next step is ready to proceed. The samples were incubated in a PCR machine for 10 minutes at 70° C. followed by 4° C. incubation period until the sample tubes were ready to be retrieved. […]

C[C@@H]1[C@H](O)[C@@H](C)/C=C/C=C/C=C/C=C/C=C/C=C/C=C/[C@H](O[C@@H]2O[C@H](C)[C@@H](O)[C@H](N)[C@@H]2O)C[C@@H]2O[C@](O)(C[C@@H](O)C[C@@H](O)[C@H](O)CC[C@@H](O)C[C@@H](O)CC(=O)O[C@H]1C)C[C@H](O)[C@H]2C(=O)O [Amphoteracin B]
BRCA1 fold induction [1]: 1.1
Beta-glucuronidase fold induction [1]: 1.3
CD40 ligand fold induction [1]: 1.4
Catalase fold induction [1]: 1.1
Caveolin-1 fold induction [1]: 1.0
Caveolin-2 fold induction [1]: 1.0
Cytochrome P450 2B fold induction [1]: 1.1
Cytochrome P450 2C21 fold induction [1]: 1.2
Cytochrome P450 2D fold induction [1]: 1.6
GRP94 fold induction [1]: 1.9
Glucose transporter fold induction [1]: 1.2
Glucose-6-phosphatase fold induction [1]: 1.3
Glucose-regulated protein 94 #2 fold induction [1]: 1.1
Glutathione S-transferase alpha subunit fold induction [1]: 1.1
Interleukin-8 fold induction [1]: 1.2
Interleukin-10 fold induction [1]: 1.1
Keratinocyte growth factor fold induction [1]: 1.1
Mek5 fold induction [1]: 1.1
Metallothionein 1 fold induction [1]: 2.1
Multidrug resistant protein-1 fold induction [1]: 1.2
Phase-1 CCT-11 fold induction [1]: 1.3
Phase-1 CCT-61 fold induction [1]: 1.1
Phase-1 CCT-72 fold induction [1]: 1.1
Phase-1 CCT-74 fold induction [1]: 1.1
Phase-1 CCT-76 fold induction [1]: 1.0
Phase-1 CCT-78 fold induction [1]: 1.0
Phase-1 CCT-80 fold induction [1]: 1.9
Phase-1 CCT-81 fold induction [1]: 1.0
Phase-1 CCT-82 fold induction [1]: 1.1
Phase-1 CCT-83 fold induction [1]: 1.1
Phase-1 CCT-87 fold induction [1]: 1.1
Phase-1 CCT-89 fold induction [1]: 1.1
Phase-1 CCT-91 fold induction [1]: 1.2
Phase-1 CCT-93 fold induction [1]: 1.0
Phase-1 CCT-97 fold induction [1]: 1.0
Phenol sulfotransferase fold induction [1]: 1.0
Prostaglandin D synthase fold induction [1]: 1.3
Rab2 fold induction [1]: 1.8
Rab5 fold induction [1]: 1.1
Rab7 fold induction [1]: 2.2
SHB (Src homology 2 protein) fold induction [1]: 1.1
TFCOUP-related (probable steroid hormone receptor) fold induction [1]: 1.1
Tissue inhibitor of metalloproteinases-1 fold induction [1]: 2.5
Tumor necrosis factor-alpha fold induction [1]: 2.0
UV excision repair protein RAD 23 (XP-C) fold induction [1]: 1.0
Ubiquitin fold induction [1]: 1.0
Vascular cell adhesion molecule 1 (VCAM-1) fold induction [1]: 3.5
ZAP36/annexin IV fold induction [1]: 1.4
c-erb B-2 fold induction [1]: 1.3
p38 MAPK fold induction [1]: 1.2
p53 fold induction [1]: 1.4

C[C@@H]1[C@H](O)[C@@H](C)/C=C/C=C/C=C/C=C/C=C/C=C/C=C/[C@H](O[C@@H]2O[C@H](C)[C@@H](O)[C@H](N)[C@@H]2O)C[C@@H]2O[C@](O)(C[C@@H](O)C[C@@H](O)[C@H](O)CC[C@@H](O)C[C@@H](O)CC(=O)O[C@H]1C)C[C@H](O)[C@H]2C(=O)O [Amphoteracin-B]
BR-cadherin fold induction [1]: 1.0
Beta-glucuronidase fold induction [1]: 1.1
CD40 ligand fold induction [1]: 2.2
Catalase fold induction [1]: 1.6
Caveolin-1 fold induction [1]: 1.2
Caveolin-2 fold induction [1]: 2.1
Cytochrome P450 2B fold induction [1]: 1.1
Cytochrome P450 2C41 fold induction [1]: 1.2
Cytochrome P450 2D fold induction [1]: 1.6
Cytochrome P450 3A fold induction [1]: 1.2
GRP94 fold induction [1]: 1.2
Glucose transporter fold induction [1]: 1.3
Glucose-regulated protein 94 #1 fold induction [1]: 1.2
Glucose-regulated protein 94 #2 fold induction [1]: 1.1
Glutathione S-transferase alpha subunit fold induction [1]: 1.8
Interleukin-8 fold induction [1]: 1.2
Interleukin-10 fold induction [1]: 5.9
Keratinocyte growth factor fold induction [1]: 1.6
Mek5 fold induction [1]: 1.2
Metallothionein 1 fold induction [1]: 3.1
Paraoxonase2 (PON2) fold induction [1]: 2.1
Phase-1 CCT-11 fold induction [1]: 1.1
Phase-1 CCT-59 fold induction [1]: 1.1
Phase-1 CCT-60 fold induction [1]: 1.3
Phase-1 CCT-63 fold induction [1]: 1.1
Phase-1 CCT-65 fold induction [1]: 1.1
Phase-1 CCT-66 fold induction [1]: 1.1
Phase-1 CCT-68 fold induction [1]: 1.1
Phase-1 CCT-72 fold induction [1]: 1.1
Phase-1 CCT-73 fold induction [1]: 1.1
Phase-1 CCT-74 fold induction [1]: 1.1
Phase-1 CCT-78 fold induction [1]: 1.1
Phase-1 CCT-84 fold induction [1]: 1.5
Phase-1 CCT-87 fold induction [1]: 1.0
Phase-1 CCT-91 fold induction [1]: 1.5
Phase-1 CCT-92 fold induction [1]: 1.4
Phase-1 CCT-94 fold induction [1]: 1.1
Phenol sulfotransferase fold induction [1]: 5.3
Prostaglandin D synthase fold induction [1]: 1.4
Rab2 fold induction [1]: 1.1
Rab5 fold induction [1]: 1.1
Rab7 fold induction [1]: 1.1
SHB (Src homology 2 protein) fold induction [1]: 1.2
Tumor necrosis factor-alpha fold induction [1]: 3.5
UV excision repair protein RAD 23 (XP-C) fold induction [1]: 1.1
Ubiquitin fold induction [1]: 1.3
ZAP36/annexin IV fold induction [1]: 1.1
c-erb B-2 fold induction [1]: 1.2
p53 fold induction [1]: 1.2

CN(Cc1cnc2nc(N)nc(N)c2n1)c1ccc(C(=O)N[C@@H](CCC(=O)O)C(=O)O)cc1 [Methotrexate]
fold induction at 2 days [2]: 1.1
fold induction at 3 days [3]: 1.1

COc1cc([C@@H]2c3cc4c(cc3[C@@H](O[C@@H]3O[C@@H]5CO[C@@H](C)O[C@H]5[C@H](O)[C@H]3O)[C@H]3COC(=O)[C@H]23)OCO4)cc(OC)c1O [etoposide]
Expression Pattern ([4]; Band # CTP3B, Homo Sapien N-myc dow BC003175, larger band of doublet): doublet-larger band is upregulated
Expression Pattern ([4]; Band # CTP27C, Homo sapiens CTCL turn AF177227): repressed with etoposide and aspirin
Expression Pattern ([4]; Band # CTP37A, Homo sapiens nuclear fax AF167569): repressed with etoposide
Expression Pattern ([4]; Band # CTP143B, No significant match): induced with etoposide and caffeine
Expression Pattern ([4]; Band # CTP150A, No significant match): repressed with etoposide
Expression Pattern ([4]; Band # CTP150C, Canis familiaris mitochon CFU96639): repressed with etoposide
Expression Pattern ([4]; Band # CTP156J, Human DNA sequence fn AL136120): induced with etoposide and caffeine
Expression Pattern ([4]; Band # CTP216A, Canis familiaris heat-shoc U19368): repressed with etoposide

[Cl][Cd][Cl] [cadmium chloride]
IL-8 gene expression, fold induction [5]: fold induction varies with the dosage

N.N.[Cl][Pt+2][Cl] [transplatin]
Expression Pattern ([4]; Band # CTP60B, Homo sapiens RNA bindii XM_016120): repressed with carbo and trans platin
Expression Pattern ([4]; Band # CTP65A, Pig mRNA for endoplasm X16951): repressed with carbo and trans platin
Expression Pattern ([4]; Band # CTP74A, No significant match): repressed with carbo, trans and cisplatin
Expression Pattern ([4]; Band # CTP75C, No significant match): repressed with carbo, trans and cisplatin
Expression Pattern ([4]; Band # CTP85D, Homo sapiens Rho-assoc XM_008814): repressed with carbo, trans and cisplatin
Expression Pattern ([4]; Band # CTP122I, Human mRNA for KIAA0(D26067)): repressed with carbo and transplatin
Expression Pattern ([4]; Band # CTP129A, Homo sapiens, Similar to BC007583): induced with transplatin
Expression Pattern ([4]; Band # CTP185C, No significant match): induced with carbo and trans platin
Expression Pattern ([4]; Band # CTP206A, Homo sapiens fatty acid c NM_013402): repressed with carbo and transplatin
Expression Pattern ([4]; Band # CTP208B, No significant match): induced with transplatin
Expression Pattern ([4]; dog, in vivo): repressed with carbo and trans platin
